Experimental data from patent US6017935A, “7-sulfur substituted paclitaxels” (Bristol-Myers Squibb Company, priority 1998, dated 2000).

system: not given; assay: not given; conditions: background statement; cited from earlier work

For `CC(=O)O[C@H]1C(=O)[C@@]2(C)[C@H]([C@H](OC(=O)c3ccccc3)[C@]3(O)C[C@H](OC(=O)[C@H](O)[C@@H](NC(=O)c4ccccc4)c4ccccc4)C(C)=C1C3(C)C)[C@]1(OC(C)=O)CO[C@@H]1C[C@@H]2O` [paclitaxel], the “antitumor activity in in vivo animal models” value is given as “excellent antitumor activity”.

system: HCT-116 human colon carcinoma cells; assay: Cytotoxicity (in vitro) MTS assay in HCT-116 human colon carcinoma cells; format: cell-based; conditions: Homo sapiens, HCT-116, 72 h, read-out: IC50 HCT 116, HCT-116 cells, MTS assay, 72 hours at 37° C.; drug concentration required to inhibit cell proliferation to 50% of untreated control
Experimental: Cytoxicity was assessed in HCT-116 human colon carcinoma cells by MTS (3-(4,5-dimethylthiazol-2-yl)-5-(3-carboxymethoxyphenyl)-2-(4-sulphenyl)-2H-tetrazolium, inner salt) assay as reported in T. L. Riss, et al., "Comparison of MTT, XTT, and a novel tetrazolium compound MTS for in vitro proliferation and chemosensitivity assays.", Mol. Biol. Cell 3 (Suppl.):184a, 1992. Cells were plated at 4,000 cell/well in 96 well microtiter plates and 24 hours later drugs were added and serial diluted. The cells were incubated at 37° C. for 72 hours at which time the tetrazolium dye, MTS at 333 μg/ml (final concentration), in combination with the electron coupling agent phenazine methosulfate at 25 μM (final concentration) was added. A dehydrogenase enzyme in live cell reduces the MTS to a form that absorbs light at […] which can be quantitated spectrophotometrically. The greater the absorbance the greater the number of live cells. The results are expressed as an IC50, which is the drug concentration required to inhibit cell proliferation (i.e. absorbance at 450 nm) to 50% of that of untreated control cells.

First: CC(=O)O[C@H]1C(=O)[C@]2(C)[C@@H](SC#N)C[C@H]3OC[C@@]3(OC(C)=O)[C@H]2[C@H](OC(=O)c2ccccc2)[C@]2(O)C[C@H](OC(=O)[C@H](O)[C@@H](NC(=O)c3ccccc3)c3ccccc3)C(C)=C1C2(C)C [Compound 28a, 7-deoxy-7β-thiocyanatopaclitaxel]
Second: CC(=O)O[C@H]1C(=O)[C@]2(C)[C@@H](SCC#N)C[C@H]3OC[C@@]3(OC(C)=O)[C@H]2[C@H](OC(=O)c2ccccc2)[C@]2(O)C[C@H](OC(=O)[C@H](O)[C@@H](NC(=O)c3ccccc3)c3ccccc3)C(C)=C1C2(C)C [Compound 25a]
The IC50 of the first is higher: 1.8 nM for the first, < 0.04 nM for the second. The second is the more potent here.

Going from `COC(=O)/C=C\S[C@H]1C[C@H]2OC[C@@]2(OC(C)=O)[C@H]2[C@H](OC(=O)c3ccccc3)[C@]3(O)C[C@H](OC(=O)[C@H](O)[C@@H](NC(=O)c4ccccc4)c4ccccc4)C(C)=C([C@@H](OC(C)=O)C(=O)[C@]12C)C3(C)C` [Compound 35a, 7-deoxy-7β-thio-(3-methylacrylate)paclitaxel] to `COC(=O)/C=C/S[C@H]1C[C@H]2OC[C@@]2(OC(C)=O)[C@H]2[C@H](OC(=O)c3ccccc3)[C@]3(O)C[C@H](OC(=O)[C@H](O)[C@@H](NC(=O)c4ccccc4)c4ccccc4)C(C)=C([C@@H](OC(C)=O)C(=O)[C@]12C)C3(C)C` [Compound 34a, 7-deoxy-7β-thio-(3-methylacrylate)paclitaxel], the IC50 rises from 1.76 nM to 6.97 nM (4-fold).

Compared with `CC(=O)O[C@H]1C(=O)[C@]2(C)[C@@H](SCc3ccccn3)C[C@H]3OC[C@@]3(OC(C)=O)[C@H]2[C@H](OC(=O)c2ccccc2)[C@]2(O)C[C@H](OC(=O)[C@H](O)[C@@H](NC(=O)c3ccccc3)c3ccccc3)C(C)=C1C2(C)C` [Compound 30a, 7-deoxy-7β-(thio-2-picolyl)-paclitaxel], `CCS[C@H]1C[C@H]2OC[C@@]2(OC(C)=O)[C@H]2[C@H](OC(=O)c3ccccc3)[C@]3(O)C[C@H](OC(=O)[C@H](O)[C@@H](NC(=O)c4ccccc4)c4ccccc4)C(C)=C([C@@H](OC(C)=O)C(=O)[C@]12C)C3(C)C` [Compound 24a, 7-deoxy-7β-thioethylpaclitaxel] is 3.6-fold higher in IC50: 1.12 nM for the first, 4.02 nM for the second. The first is the more potent here.

First: CS[C@@H]1C[C@H]2OC[C@@]2(OC(C)=O)[C@H]2[C@H](OC(=O)c3ccccc3)[C@]3(O)C[C@H](OC(=O)[C@H](O)[C@@H](NC(=O)c4ccccc4)c4ccccc4)C(C)=C([C@@H](OC(C)=O)C(=O)[C@@]21C)C3(C)C [Compound 5a, 7-deoxy-7α-thiomethylpaclitaxel]
Second: CS[C@H]1C[C@H]2OC[C@@]2(OC(C)=O)[C@H]2[C@H](OC(=O)c3ccccc3)[C@]3(O)C[C@H](OC(=O)[C@H](O)[C@@H](NC(=O)c4ccccc4)c4ccccc4)C(C)=C([C@@H](OC(C)=O)C(=O)[C@]12C)C3(C)C [Compound 18a, 7-deoxy-7β-thiomethylpaclitaxel]
The IC50 of the first is 66-fold higher: 13.1 nM for the first, 0.2 nM for the second. The second is the more potent here.

First: CC(=O)O[C@H]1C(=O)[C@]2(C)[C@@H](SC[S+](C)[O-])C[C@H]3OC[C@@]3(OC(C)=O)[C@H]2[C@H](OC(=O)c2ccccc2)[C@]2(O)C[C@H](OC(=O)[C@H](O)[C@@H](NC(=O)c3ccccc3)c3ccccc3)C(C)=C1C2(C)C (stereo partly drawn) [31a&b, 7-deoxy-7β-methylsulfinylmethylthiopaclitaxel]
Second: COCS[C@H]1C[C@H]2OC[C@@]2(OC(C)=O)[C@H]2[C@H](OC(=O)c3ccccc3)[C@]3(O)C[C@H](OC(=O)[C@H](O)[C@@H](NC(=O)c4ccccc4)c4ccccc4)C(C)=C([C@@H](OC(C)=O)C(=O)[C@]12C)C3(C)C [Compound 16a, 7-deoxy-7β-thiomethoxymethyl paclitaxel]
The IC50 of the first is 13-fold higher: 6.48 nM for the first, 0.5 nM for the second. The second is the more potent here.

First: CC(=O)O[C@H]1C(=O)[C@@]2(C)[C@H]([C@H](OC(=O)c3ccccc3)[C@]3(O)C[C@H](OC(=O)[C@H](O)[C@@H](NC(=O)c4ccccc4)c4ccccc4)C(C)=C1C3(C)C)[C@]1(OC(C)=O)CO[C@@H]1C[C@@H]2O [paclitaxel]
Second: CC(=O)O[C@H]1C(=O)[C@@]2(C)[C@H]([C@H](OC(=O)c3ccccc3)[C@]3(O)C[C@H](OC(=O)[C@H](O)[C@@H](NC(=O)c4ccccc4)c4ccccc4)C(C)=C1C3(C)C)[C@]1(OC(C)=O)CO[C@@H]1C[C@@H]2S [Compound 14a, 7-deoxy-7β-thiopaclitaxel]
The IC50 of the first is lower: 1.71 to 2.28 nM for the first, 13.5 nM for the second. The first is the more potent here.

`C=CS[C@H]1C[C@H]2OC[C@@]2(OC(C)=O)[C@H]2[C@H](OC(=O)c3ccccc3)[C@]3(O)C[C@H](OC(=O)[C@H](O)[C@@H](NC(=O)c4ccccc4)c4ccccc4)C(C)=C([C@@H](OC(C)=O)C(=O)[C@]12C)C3(C)C` [Compound 27a, 7-deoxy-7β-thiovinylpaclitaxel] and `CC(=O)O[C@H]1C(=O)[C@]2(C)[C@@H](SCCO)C[C@H]3OC[C@@]3(OC(C)=O)[C@H]2[C@H](OC(=O)c2ccccc2)[C@]2(O)C[C@H](OC(=O)[C@H](O)[C@@H](NC(=O)c3ccccc3)c3ccccc3)C(C)=C1C2(C)C` [Compound 20a, 7-deoxy-7β-(2-hydroxethylthio)paclitaxel] are within 1.5-fold of each other in IC50: 1.2 nM for the first, 0.82 nM for the second.

In the case of `CS[C@H]1C[C@H]2OC[C@@]2(OC(C)=O)[C@H]2[C@H](OC(=O)c3ccccc3)[C@]3(O)C[C@H](OC(=O)[C@H](O)[C@@H](NC(=O)OC(C)(C)C)c4ccccc4)C(C)=C([C@@H](OC(C)=O)C(=O)[C@]12C)C3(C)C` [Compound 22a, 3'-NH-Boc-7-deoxy-7β-thiomethylpaclitaxel], the IC50 is reported as 0.3 nM.

same assay, conditions: Homo sapiens; HCT-116 cells, MTS assay, 72 hours at 37° C.; drug concentration required to inhibit cell proliferation to 50% of untreated control; read-out: IC50 HCT 116

In order of rising IC50:
1. CC(=O)O[C@@H]1C2=C(C)[C@@H](OC(=O)[C@H](O)[C@@H](NC(=O)c3ccccc3)c3ccccc3)C[C@@](O)([C@@H](OC(=O)c3ccccc3)[C@@H]3[C@]4(OC(C)=O)CO[C@@H]4C[C@@H]4[C@@]3(C)C1(O)CS4(=O)=O)C2(C)C (stereo partly drawn) [Compound 9a]  2.99 nM
2. CC(=O)O[C@H]1C(=O)[C@@]2(C)[C@H]([C@H](OC(=O)c3ccccc3)[C@]3(O)C[C@H](OC(=O)[C@H](O)[C@@H](NC(=O)c4ccccc4)c4ccccc4)C(C)=C1C3(C)C)[C@]1(OC(C)=O)CO[C@@H]1C[C@H]2S(C)(=O)=O [Compound 7a, 7-deoxy-7α-methylsulfonylpaclitaxel]  72.3 nM

same assay, conditions: read-out: IC50 HCT 116; HCT-116 cells, MTS assay, 72 hours at 37° C.; drug concentration required to inhibit cell proliferation to 50% of untreated control

In order of falling IC50:
1. CC(=O)O[C@H]1C(=O)[C@]2(C)[C@@H]([S+](C)[O-])C[C@H]3OC[C@@]3(OC(C)=O)[C@H]2[C@H](OC(=O)c2ccccc2)[C@]2(O)C[C@H](OC(=O)[C@H](O)[C@@H](NC(=O)c3ccccc3)c3ccccc3)C(C)=C1C2(C)C (single isomer, unassigned) [Compound 29b, 7-deoxy-7β-methylsulfinyl-paclitaxel]  12.1 nM
2. CC(=O)O[C@H]1C(=O)[C@]2(C)[C@@H]([S+](C)[O-])C[C@H]3OC[C@@]3(OC(C)=O)[C@H]2[C@H](OC(=O)c2ccccc2)[C@]2(O)C[C@H](OC(=O)[C@H](O)[C@@H](NC(=O)c3ccccc3)c3ccccc3)C(C)=C1C2(C)C (single isomer, unassigned) [Compound 29a, 7-deoxy-7β-methylsulfinyl-paclitaxel]  3.99 nM

system: not given; assay: not given; conditions: background statement; cited from earlier work; remark: another data set of the same source

In the case of `CC(=O)O[C@@]12CO[C@@H]1C[C@H](O)[C@@]1(C)C(=O)[C@H](O)C3=C(C)[C@@H](OC(=O)[C@H](O)[C@@H](NC(=O)OC(C)(C)C)c4ccccc4)C[C@@](O)([C@@H](OC(=O)c4ccccc4)[C@H]21)C3(C)C` [docetaxel], the antitumor activity is given as “good antitumor activity”.
